Results reported in patent publication US8426429B2, “2-amino-quinazoline derivatives useful as inhibitors of β-secretase (BACE)” (Jansssen Pharmaceutica N.V., priority 2004, dated 2013).

Target: T1, β-secretase (BACE) (Homo sapiens, UniProt P56817)
T1 construct: purchased Panvera
Test: BACE FS1 % Inhibition Assay
Format: biochemical
Method: The following reagents were used in this assay: sodium acetate, PEG8000 (Sigma), DMSO, HEPES, FS1 substrate [[…]] […] The FS1-substrate stock solution was prepared in DMSO as a 10 mg/mL solution. The FS1-substrate working solution was prepared by diluting the 10 mg/mL stock solution with substrate assay buffer to a final concentration of 300 μg/mL. The β-secretase (BACE) working solution was prepared by diluting a 0.83 mg/mL BACE stock solution with enzyme assay buffer to a final concentration of 4 μg/mL. Test compounds were dissolved in DMSO to 10 mM. […] The screening procedure for this assay was as follows: 15 μL of BACE working solution was pipetted into each well of a 96-well plate. To each well was then pipetted 2 μL of test compound at the selected concentration. Test compound and BACE were then mixed with a pipettor and incubated for 20 min at room temperature. To each well was then added 10 μL of the FS1 substrate working solution. The plates were then incubated for 1 hour at room temperature. […] The procedure for the blank was as follows. 15 μL of assay buffer was pipetted into each well to be used as a blank control. To each well was then added 2 μL of vehicle and 10 μL of FS1-substrate working solution. The plates were then incubated for 1 hour at room temperature. […] The procedure for the positive control was as follows: 15 μL of BACE working solution was pipetted into each well to be used as a positive control. To each well was then pipetted 2 μL of vehicle. Vehicle and BACE were then mixed with a pipettor and incubated for 20 min at room temperature. To each well was then added 10 μL of the FS1 substrate working solution. The plates were then incubated for 1 hour at room temperature. […] For test compounds, % inhibition was determined at each concentration as follows: [formula]

T1 sequence (P56817 46-501): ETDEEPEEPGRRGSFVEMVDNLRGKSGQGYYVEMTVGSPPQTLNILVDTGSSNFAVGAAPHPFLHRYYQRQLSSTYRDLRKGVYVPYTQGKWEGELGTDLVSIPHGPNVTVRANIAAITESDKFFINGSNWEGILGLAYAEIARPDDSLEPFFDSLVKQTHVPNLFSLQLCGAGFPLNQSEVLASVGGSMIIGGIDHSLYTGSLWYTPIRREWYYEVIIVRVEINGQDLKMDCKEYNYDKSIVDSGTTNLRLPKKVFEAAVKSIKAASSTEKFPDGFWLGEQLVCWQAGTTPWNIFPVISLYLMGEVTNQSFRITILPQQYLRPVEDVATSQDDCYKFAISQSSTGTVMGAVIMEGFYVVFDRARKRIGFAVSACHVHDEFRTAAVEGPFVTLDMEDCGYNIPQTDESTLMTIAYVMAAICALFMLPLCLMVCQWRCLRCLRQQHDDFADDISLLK

Row | Compound | % Inhibition (FS) (0.3 μM test compound) | % Inhibition (FS) (1 μM test compound) | % Inhibition (FS) (3 μM test compound)
1 | CN(C(=O)c1cccc(CN2Cc3cc(-c4ccccc4-c4ccccc4)ccc3N=C2N)c1)C1CCCCC1 [Compound 321] | −33% | <30% | <30%
2 | CCC(c1cccc(C(=O)N(C)C2CCCCC2)c1)N1Cc2cc(-c3ccccc3OC)ccc2N=C1N (stereo not drawn) [Compound 395] | 69% | 107% | 118%
3 | CC(C)C(CC(=O)NC1C2CC3CC(C2)CC1C3)N1Cc2cc(Oc3ccccc3)ccc2N=C1N (stereo not drawn) [Compound 402] | <30% | 53% | 99%
4 | Cc1cccc(Sc2ccc3c(c2)CN(Cc2cccc(C(=O)N(C)C4CCCCC4)c2)C(N)=N3)c1 [Compound 405] | 43% | 106% | 118%
5 | CC(C)c1ccc(Sc2ccc3c(c2)CN(Cc2cccc(C(=O)N(C)C4CCCCC4)c2)C(N)=N3)cc1 [Compound 407] | <30% | <30% | 48%
6 | Cc1ccc(Sc2ccc3c(c2)CN(Cc2cccc(C(=O)N(C)C4CCCCC4)c2)C(N)=N3)cc1C [Compound 408] | <30% | 34% | 95%
7 | Cc1cc(C)cc(Sc2ccc3c(c2)CN(Cc2cccc(C(=O)N(C)C4CCCCC4)c2)C(N)=N3)c1 [Compound 409] | <30% | <30% | 72%
8 | COc1ccc(Sc2ccc3c(c2)CN(Cc2cccc(C(=O)N(C)C4CCCCC4)c2)C(N)=N3)cc1OC [Compound 411] | <30% | <30% | 55%
9 | CSc1ccc(Sc2ccc3c(c2)CN(Cc2cccc(C(=O)N(C)C4CCCCC4)c2)C(N)=N3)cc1 [Compound 413] | <30% | <30% | 53%
10 | CNC(=O)c1ccccc1Sc1ccc2c(c1)CN(Cc1cccc(C(=O)N(C)C3CCCCC3)c1)C(N)=N2 [Compound 416] | <30% | <30% | −3%
11 | CC(=O)Nc1ccc(Sc2ccc3c(c2)CN(Cc2cccc(C(=O)N(C)C4CCCCC4)c2)C(N)=N3)cc1 [Compound 417] | <30% | <30% | 78%
12 | Cc1cccc(Nc2ccc3c(c2)CN(Cc2cccc(C(=O)N(C)C4CCCCC4)c2)C(N)=N3)c1 [Compound 435] | <30% | <30% | 85%
13 | CN(C(=O)c1cccc(CN2Cc3cc(Nc4ccc(C5CCCCC5)cc4)ccc3N=C2N)c1)C1CCCCC1 [Compound 437] | <30% | <30% | 38%
14 | CN(C)c1ccc(Nc2ccc3c(c2)CN(Cc2cccc(C(=O)N(C)C4CCCCC4)c2)C(N)=N3)cc1 [Compound 438] | <30% | <30% | <30%
15 | CN(C(=O)c1cccc(CN2Cc3cc(Nc4ccc(N5CCOCC5)cc4)ccc3N=C2N)c1)C1CCCCC1 [Compound 439] | <30% | <30% | <30%

Other lines, results leading:

Row | % Inhibition (FS) (0.3 μM test compound) | % Inhibition (FS) (1 μM test compound) | % Inhibition (FS) (3 μM test compound) | Compound
16 | −31% | <30% | <30% | CCc1ccccc1-c1ccc2c(c1)CN(Cc1cccc(C(=O)N(C)C3CCCCC3)c1)C(N)=N2 [Compound 320]
17 | <30% | <30% | 45% | CC(=O)c1ccccc1-c1ccc2c(c1)CN(Cc1cccc(C(=O)N(C)C3CCCCC3)c1)C(N)=N2 [Compound 323]
18 | <30% | <30% | 48% | CN(C(=O)c1cccc(CN2Cc3cc(-c4ccccc4OCc4ccccc4)ccc3N=C2N)c1)C1CCCCC1 [Compound 327]
19 | <30% | <30% | <30% | CC(c1ccccc1)c1ccc2c(c1)CN(Cc1cccc(C(=O)N(C)C3CCCCC3)c1)C(N)=N2 (stereo not drawn) [Compound 332]
20 | <30% | <30% | 52% | CC(C)C(CC(=O)NC1CCCCC1)N1Cc2cc(Oc3ccccc3)ccc2N=C1N (stereo not drawn) [Compound 401]
21 | <30% | <30% | 66% | NC1=Nc2ccc(Oc3ccccc3)cc2CN1CCCNC1CCCCC1 [Compound 403]
22 | <30% | <30% | 50% | CCc1ccccc1Sc1ccc2c(c1)CN(Cc1cccc(C(=O)N(C)C3CCCCC3)c1)C(N)=N2 [Compound 406]
23 | <30% | 39% | 50% | COc1ccc(Sc2ccc3c(c2)CN(Cc2cccc(C(=O)N(C)C4CCCCC4)c2)C(N)=N3)cc1 [Compound 410]
24 | <30% | <30% | 49% | COc1ccccc1Sc1ccc2c(c1)CN(Cc1cccc(C(=O)N(C)C3CCCCC3)c1)C(N)=N2 [Compound 412]
25 | <30% | <30% | 27% | CN(C(=O)c1cccc(CN2Cc3cc(Sc4cccc5ccccc45)ccc3N=C2N)c1)C1CCCCC1 [Compound 414]
26 | <30% | <30% | 63% | CN(C(=O)c1cccc(CN2Cc3cc(Sc4ccc5ccccc5c4)ccc3N=C2N)c1)C1CCCCC1 [Compound 415]
27 | 38% | 64% | 109% | CCC(c1cccc(C(=O)N(C2CCCCC2)C2CCCCC2)c1)N1Cc2cc(Oc3ccccc3)ccc2N=C1N (stereo not drawn) [Compound 419]
28 | <30% | <30% | 53% | CN(C(=O)CCC(c1ccc(-c2ccccc2)cc1)N1Cc2cc(Oc3ccccc3)ccc2N=C1N)C1CCCCC1 (stereo not drawn) [Compound 420]
29 | <30% | 71% | 111% | Cc1ccc(C(CCC(=O)N(C)C2CCCCC2)N2Cc3cc(Oc4ccccc4)ccc3N=C2N)cc1 (stereo not drawn) [Compound 421]
30 | <30% | 26% | 62% | NC1=Nc2ccc(Oc3ccccc3)cc2CN1CCNCC1CCCCC1 [Compound 427]
31 | <30% | <30% | <30% | CN(CCN1Cc2cc(Oc3ccccc3)ccc2N=C1N)C1CCCCC1 [Compound 429]
32 | <30% | 33% | 88% | COc1cccc(Nc2ccc3c(c2)CN(Cc2cccc(C(=O)N(C)C4CCCCC4)c2)C(N)=N3)c1 [Compound 433]
33 | <30% | <30% | <30% | COc1ccc(Nc2ccc3c(c2)CN(Cc2cccc(C(=O)N(C)C4CCCCC4)c2)C(N)=N3)cc1 [Compound 434]
34 | <30% | 37% | 50% | CN(C(=O)c1cccc(CN2Cc3cc(Nc4ccc5ccccc5c4)ccc3N=C2N)c1)C1CCCCC1 [Compound 436]
